“And” between values parts separate entries of the source, which are not always exact repeats. Equal entries are not always repeated.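 Where inhibition never reached the appropriate level, the endpoint shown equals the highest concentration tested. Otherwise, values were interpolated linearly from a five-concentration, 48-hour dose response in 96-well plates. GI50: concentration for 50% inhibition of growth. TGI: total growth inhibition.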
Columns and labels:
Assay in all cases: inhibition of tumour cell growth, NCI panel, 48 h
UO-31 renal = test system: UO-31 renal
MCF7 breast = test system: MCF7 breast
MALME-3M melanoma = test system: MALME-3M melanoma
SF-539 CNS = test system: SF-539 CNS
SR leukemia = test system: SR leukemia
RXF 393 renal = test system: RXF 393 renal
OVCAR-4 ovarian = test system: OVCAR-4 ovarian
LOX IMVI melanoma = test system: LOX IMVI melanoma
K-562 leukemia = test system: K-562 leukemia
COLO 205 colon = test system: COLO 205 colon
SF-268 CNS = test system: SF-268 CNS
NCI-H522 lung = test system: NCI-H522 lung
SW-620 colon = test system: SW-620 colon
SNB-75 CNS = test system: SNB-75 CNS
SK-MEL-5 melanoma = test system: SK-MEL-5 melanoma
SK-MEL-28 melanoma = test system: SK-MEL-28 melanoma
PC-3 prostate = test system: PC-3 prostate
RPMI-8226 leukemia = test system: RPMI-8226 leukemia
EKVX NSCLC = test system: EKVX NSCLC
T-47D breast = test system: T-47D breast
SNB-19 CNS = test system: SNB-19 CNS
NCI-H23 lung = test system: NCI-H23 lung
MOLT-4 leukemia = test system: MOLT-4 leukemia
U251 CNS = test system: U251 CNS
UACC-62 melanoma = test system: UACC-62 melanoma
OVCAR-8 ovarian = test system: OVCAR-8 ovarian
NCI-H460 lung = test system: NCI-H460 lung
NCI-H226 lung = test system: NCI-H226 lung
SK-MEL-2 melanoma = test system: SK-MEL-2 melanoma

## CC1=C/C=C/C(=O)O[C@@H]([C@H](C)[C@H](O)[C@@H](C)NC(=O)C(C)C)[C@H](C)/C=C/C(C)=C/[C@H]2C=CCC[C@@]2(C)\C=C\1
UO-31 renal
  GI50: 244 nM and 396 nM
  TGI: 7850 nM
MCF7 breast
  GI50: 74.6 nM and 38.2 nM
  TGI: 23700 nM
MALME-3M melanoma
  GI50: 2010 nM and 1710 nM
  TGI: 8400 nM
SF-539 CNS
  GI50: 58.6 nM and 58.8 nM
  TGI: 5300 nM
SR leukemia
  GI50: 410 nM and 191 nM
  TGI: 5580 nM
RXF 393 renal
  TGI: 8690 nM
OVCAR-4 ovarian
  GI50: 6470 nM
  TGI: 21900 nM
LOX IMVI melanoma
  GI50: 47.9 nM and 68.8 nM
  TGI: 307 nM and 178 nM
K-562 leukemia
  GI50: 559 nM and 565 nM
  TGI: 36900 nM
COLO 205 colon
  GI50: 322 nM and 189 nM
  TGI: 7330 nM
SF-268 CNS
  TGI: 17700 nM
NCI-H522 lung
  GI50: 4970 nM and 2060 nM
  TGI: 13600 nM
SW-620 colon
  GI50: 705 nM and 303 nM
  TGI: 8900 nM
SNB-75 CNS
  TGI: > 42300 nM
SK-MEL-5 melanoma
  GI50: 63.4 nM and 20.2 nM
  TGI: 810 nM and 812 nM
SK-MEL-28 melanoma
  GI50: 469 nM and 376 nM
  TGI: 8480 nM
PC-3 prostate
  GI50: 654 nM and 223 nM
  TGI: 13200 nM
RPMI-8226 leukemia
  GI50: 705 nM and 703 nM
  TGI: 12300 nM
EKVX NSCLC
  GI50: 1650 nM and 3940 nM
  TGI: 25100 nM
T-47D breast
  GI50: 112 nM and 132 nM
  TGI: 36600 nM
SNB-19 CNS
  GI50: 2010 nM and 736 nM
  TGI: 25900 nM
NCI-H23 lung
  GI50: 1750 nM and 1490 nM
  TGI: 15200 nM
MOLT-4 leukemia
  GI50: 8410 nM
  TGI: 31600 nM
U251 CNS
  GI50: 75.9 nM and 70.2 nM
  TGI: 7180 nM
UACC-62 melanoma
  GI50: 418 nM and 620 nM
  TGI: 8980 nM
OVCAR-8 ovarian
  GI50: 3170 nM and 989 nM
  TGI: 34200 nM
NCI-H460 lung
  GI50: 526 nM and 287 nM
  TGI: 26400 nM
NCI-H226 lung
  GI50: 2480 nM and 582 nM
  TGI: 10000 nM
SK-MEL-2 melanoma
  GI50: 6980 nM
  TGI: 20400 nM
